Key:
Type in all cases: organism-based
Phaseolus vulgaris [1] = test: Phytotoxicity against Phaseolus vulgaris (Kidney dry beans) assessed as yield at 840 g a.i./ha applied pre-emergence (reference value: 1.9 +/- 0.1 tons/ha); conditions: in vivo, other
Phaseolus vulgaris [2] = test: Phytotoxicity against Phaseolus vulgaris (Black dry beans) assessed as plant height at 840 g a.i./ha applied pre-emergence measured at 28 days post-emergence (reference value: 28 +/- 1 cm); conditions: in vivo, other, 672 h
Phaseolus vulgaris [3] = test: Phytotoxicity against Phaseolus vulgaris (Pinto dry beans) assessed as shoot dry weight at 840 g a.i./ha applied pre-emergence measured at 42 days post-emergence (reference value: 134 +/- 11 g/m); conditions: in vivo, other, 1008 h
Phaseolus vulgaris [4] = test: Phytotoxicity against Phaseolus vulgaris (Yellow eye dry beans) assessed as yield at 420 g a.i./ha applied pre-emergence (reference value: 2 +/- 0.1 tons/ha); conditions: in vivo, other
Phaseolus vulgaris [5] = test: Phytotoxicity against Phaseolus vulgaris (Black dry beans) assessed as plant height at 420 g a.i./ha applied pre-emergence measured at 28 days post-emergence (reference value: 28 +/- 1 cm); conditions: in vivo, other, 672 h
Phaseolus vulgaris [6] = test: Phytotoxicity against Phaseolus vulgaris (Brown dry beans) assessed as plant height at 840 g a.i./ha applied pre-emergence measured at 28 days post-emergence (reference value: 33 +/- 1 cm); conditions: in vivo, other, 672 h
Phaseolus vulgaris [7] = test: Phytotoxicity against Phaseolus vulgaris (Otebo dry beans) assessed as plant height at 840 g a.i./ha applied pre-emergence measured at 28 days post-emergence (reference value: 31 +/- 2 cm); conditions: in vivo, other, 672 h
Phaseolus vulgaris [8] = test: Phytotoxicity against Phaseolus vulgaris (Black dry beans) assessed as shoot dry weight at 420 g a.i./ha applied pre-emergence measured at 42 days post-emergence (reference value: 136 +/- 9 g/m); conditions: in vivo, other, 1008 h
Phaseolus vulgaris [9] = test: Phytotoxicity against Phaseolus vulgaris (dry beans) assessed as change in seed moisture content at 420 to 840 g a.i./ha applied pre-emergence relative to control; conditions: in vivo, other
Phaseolus vulgaris [10] = test: Phytotoxicity against Phaseolus vulgaris (Yellow eye dry beans) assessed as reduction in shoot dry weight at 840 g a.i./ha applied pre-emergence measured at 42 days post-emergence relative to control; set-up: scale not given: the % may be the effect or the level left; conditions: in vivo, other, 1008 h
Phaseolus vulgaris [11] = test: Phytotoxicity against Phaseolus vulgaris (Black dry beans) assessed as reduction in shoot dry weight at 840 g a.i./ha applied pre-emergence measured at 42 days post-emergence relative to control; set-up: scale not given: the % may be the effect or the level left; conditions: in vivo, other, 1008 h
Phaseolus vulgaris [12] = test: Phytotoxicity against Phaseolus vulgaris (Cranberry dry beans) assessed as visual crop injury at 420 to 840 g a.i./ha applied pre-emergence measured at 28 days post-emergence relative to control; conditions: in vivo, other, 672 h
Phaseolus vulgaris [13] = test: Phytotoxicity against Phaseolus vulgaris (White dry beans) assessed as reduction in yield at 840 g a.i./ha applied pre-emergence relative to control; set-up: scale not given: the % may be the effect or the level left; conditions: in vivo, other
Phaseolus vulgaris [14] = test: Phytotoxicity against Phaseolus vulgaris (Cranberry dry beans) assessed as yield at 420 g a.i./ha applied pre-emergence (reference value: 2.7 +/- 0.1 tons/ha); conditions: in vivo, other
Phaseolus vulgaris [15] = test: Phytotoxicity against Phaseolus vulgaris (dry bean) assessed as visual crop injury at 420 g a.i./ha applied pre-emergence measured at 14 days post-emergence relative to control; conditions: in vivo, other, 336 h
Phaseolus vulgaris [16] = test: Phytotoxicity against Phaseolus vulgaris (Kidney dry beans) assessed as plant height at 840 g a.i./ha applied pre-emergence measured at 28 days post-emergence (reference value: 33 +/- 1 cm); conditions: in vivo, other, 672 h
Phaseolus vulgaris [17] = test: Phytotoxicity against Phaseolus vulgaris (dry bean) assessed as visual crop injury at 420 g a.i./ha applied pre-emergence measured at 28 days post-emergence relative to control; conditions: in vivo, other, 672 h
Phaseolus vulgaris [18] = test: Phytotoxicity against Phaseolus vulgaris (Cranberry dry beans) assessed as reduction in yield at 840 g a.i./ha applied pre-emergence relative to control; set-up: scale not given: the % may be the effect or the level left; conditions: in vivo, other
Phaseolus vulgaris [19] = test: Phytotoxicity against Phaseolus vulgaris (Black dry beans) assessed as visual crop injury at 420 to 840 g a.i./ha applied pre-emergence measured at 28 days post-emergence relative to control; conditions: in vivo, other, 672 h
Phaseolus vulgaris [20] = test: Phytotoxicity against Phaseolus vulgaris (Yellow eye dry beans) assessed as plant height at 840 g a.i./ha applied pre-emergence measured at 28 days post-emergence (reference value: 33 +/- 1 cm); conditions: in vivo, other, 672 h
Phaseolus vulgaris [21] = test: Phytotoxicity against Phaseolus vulgaris (Brown dry beans) assessed as yield at 420 g a.i./ha applied pre-emergence (reference value: 2.3 +/- 0.1 tons/ha); conditions: in vivo, other
Phaseolus vulgaris [22] = test: Phytotoxicity against Phaseolus vulgaris (dry bean) assessed as visual crop injury at 840 g a.i./ha applied pre-emergence measured at 28 days post-emergence relative to control; conditions: in vivo, other, 672 h
Phaseolus vulgaris [23] = test: Phytotoxicity against Phaseolus vulgaris (Black dry beans) assessed as reduction in yield at 840 g a.i./ha applied pre-emergence relative to control; set-up: scale not given: the % may be the effect or the level left; conditions: in vivo, other
Phaseolus vulgaris [24] = test: Phytotoxicity against Phaseolus vulgaris (Cranberry dry beans) assessed as plant height at 840 g a.i./ha applied pre-emergence measured at 28 days post-emergence (reference value: 33 +/- 1 cm); conditions: in vivo, other, 672 h
Phaseolus vulgaris [25] = test: Phytotoxicity against Phaseolus vulgaris (White dry beans) assessed as plant height at 840 g a.i./ha applied pre-emergence measured at 28 days post-emergence (reference value: 31 +/- 2 cm); conditions: in vivo, other, 672 h
Phaseolus vulgaris [26] = test: Phytotoxicity against Phaseolus vulgaris (Cranberry dry beans) assessed as shoot dry weight at 420 g a.i./ha applied pre-emergence measured at 42 days post-emergence (reference value: 138 +/- 8 g/m); conditions: in vivo, other, 1008 h
Phaseolus vulgaris [27] = test: Phytotoxicity against Phaseolus vulgaris (White dry beans) assessed as yield at 420 g a.i./ha applied pre-emergence (reference value: 2.9 +/- 0.1 tons/ha); conditions: in vivo, other
Phaseolus vulgaris [28] = test: Phytotoxicity against Phaseolus vulgaris (Otebo dry beans) assessed as reduction in yield at 840 g a.i./ha applied pre-emergence relative to control; set-up: scale not given: the % may be the effect or the level left; conditions: in vivo, other
Phaseolus vulgaris [29] = test: Phytotoxicity against Phaseolus vulgaris (Otebo dry beans) assessed as reduction in shoot dry weight at 840 g a.i./ha applied pre-emergence measured at 42 days post-emergence relative to control; set-up: scale not given: the % may be the effect or the level left; conditions: in vivo, other, 1008 h
Phaseolus vulgaris [30] = test: Phytotoxicity against Phaseolus vulgaris (Pinto dry beans) assessed as yield at 840 g a.i./ha applied pre-emergence (reference value: 3.1 +/- 0.1 tons/ha); conditions: in vivo, other

## Cc1nn(-c2cc(NS(C)(=O)=O)c(Cl)cc2Cl)c(=O)n1C(F)F [SULFENTRAZONE]
Phaseolus vulgaris [1]
  Crop_yield: 1.6 tons/ha
Phaseolus vulgaris [2]
  Activity: 21 cm
Phaseolus vulgaris [3]
  Activity: 128 g/m
Phaseolus vulgaris [4]
  Crop_yield: 2 tons/ha
Phaseolus vulgaris [5]
  Activity: 26 cm
Phaseolus vulgaris [6]
  Activity: 28 cm
Phaseolus vulgaris [7]
  Activity: 23 cm
Phaseolus vulgaris [8]
  Activity: 111 g/m
Phaseolus vulgaris [9]
  Activity: Non-toxic
Phaseolus vulgaris [10]
  Activity: 40%
Phaseolus vulgaris [11]
  Activity: 35%
Phaseolus vulgaris [12]
  Activity: 17.6%
Phaseolus vulgaris [13]
  Activity: 52%
Phaseolus vulgaris [14]
  Crop_yield: 2.4 tons/ha
Phaseolus vulgaris [15]
  Activity: 12%
Phaseolus vulgaris [16]
  Activity: 25 cm
Phaseolus vulgaris [17]
  Activity: 7%
Phaseolus vulgaris [18]
  Activity: 44%
Phaseolus vulgaris [19]
  Activity: 16.6%
Phaseolus vulgaris [20]
  Activity: 25 cm
Phaseolus vulgaris [21]
  Crop_yield: 2.3 tons/ha
Phaseolus vulgaris [22]
  Activity: 22%
Phaseolus vulgaris [23]
  Activity: 47%
Phaseolus vulgaris [24]
  Activity: 21 cm
Phaseolus vulgaris [25]
  Activity: 20 cm
Phaseolus vulgaris [26]
  Activity: 138 g/m
Phaseolus vulgaris [27]
  Crop_yield: 2.4 tons/ha
Phaseolus vulgaris [28]
  Activity: 26%
Phaseolus vulgaris [29]
  Activity: 36%
Phaseolus vulgaris [30]
  Crop_yield: 2.7 tons/ha
